Experimental data taken from patent US9562022B2 (priority 2009, dated 2017).
Structures can show the parent of a compound that is named as a salt.

Tested on: not given
Assay: not given
Conditions: not given

Compound | melting point
CC1=C(/C=C/C(=O)N2CCN(S(N)(=O)=O)CC2)C(C)(C)CCC1 (as salt: hydrochloride) | 181 to 183 °C

Tested on: P23H opsin
Assay: Rhodopsin purification and regeneration (pigment formation from P23H opsin produced in the presence of compound)
Conditions: P23H opsin treated with 20 μM compound during mutant protein production; relative to pigment formation with vehicle (DMSO) alone

Compound | regeneration of 500 nm absorbing pigment upon treatment with retinal
CC1=C(/C=C/C(=O)N2CCCN(C(N)=O)CC2)C(C)(C)CCC1 [Compound 13, (E)-4-(3-(2,6,6-Trimethylcyclohex-1-enyl)acryloyl)-1,4-diazepane-1-carboxamide] | increase
CC1=C(/C=C/C(=O)N2CCN(C(N)=O)[C@H](C)C2)C(C)(C)CCC1 [Compound 53, (R,E)-2-Methyl-4-(3-(2,6,6-trimethylcyclohex-1-enyl)acryloyl)piperazine-1-carboxamide] | increase
CC1=C(CNC(=O)N2CCN(C(N)=O)CC2)C(C)(C)CCC1 [Compound 55, N^1-((2,6,6-Trimethylcyclohex-1-en-1-yl)methyl)piperazine-1,4-dicarboxamide] | increase
[2H]C1([2H])CCC(C)(C)C(/C=C/C(=O)N2CCN(C(N)=O)CC2)=C1C [Compound 63, (E)-4-(3-(3,3-Dideutero-2,6,6-trimethylcyclohex-1-en-1-yl)acryloyl)piperazine-1-carboxamide] | increase
C[C@H]1CCCC(C)(C)[C@@H]1CCC(=O)N1CCN(C(N)=O)CC1 [Compound 80, 4-(3-((1R,6S)-2,2,6-trimethylcyclohexyl)propanoyl)piperazine-1-carboxamide] | increase
CC1=C(/C=C/C(=O)N2CCN(C(N)=O)[C@@H](C)C2)C(C)(C)CCC1 [Compound 52, (S,E)-2-Methyl-4-(3-(2,6,6-trimethylcyclohex-1-enyl)acryloyl)piperazine-1-carboxamide] | increase
CC1=C(CCC(=O)N2CCN(C(N)=O)CC2)C(C)(C)CCC1 [Compound 51, 4-(3-(2,6,6-Trimethylcyclohex-1-enyl)propanoyl)piperazine-1-carboxamide] | increase
C#CC1CN(C(=O)/C=C/C2=C(C)CCCC2(C)C)CCN1C(N)=O (centres unmarked) [Compound 106, (E)-2-Ethynyl-4-(3-(2,6,6-trimethylcyclohex-1-en-1-yl)acryloyl)piperazine-1-carboxamide] | increase
CC1=C(/C=C/C(=O)N2CCN(C(=O)NC(C)C)CC2)C(C)(C)CCC1 [Compound 37, (E)-N-Isopropyl-4-(3-(2,6,6-trimethylcyclohex-1-enyl)acryloyl)piperazine-1-carboxamide] | increase
CC1=C(/C=C/C(=O)N2CCN(C(N)=O)CC2)C(C)(C)CCC1 [Compound 33, (E)-4-(3-(2,6,6-Trimethylcyclohex-1-enyl)acryloyl)piperazine-1-carboxamide] | increase
C[C@H]1CCCC(C)(C)[C@@H]1/C=C/C(=O)N1CCN(C(N)=O)CC1 [Compound 73, (+)-4-((E)-3-((1S,6S)-2,2,6-trimethylcyclohexyl)acryloyl)piperazine-1-carboxamide] | increase
CC1CCCC(C)(C)C1/C=C/C(=O)N1CCN(C(N)=O)CC1 (racemic) [Compound 71, (±)-4-((E)-3-((1,6-anti)-2,2,6-trimethylcyclohexyl)acryloyl)piperazine-1-carboxamide] | increase
CC1=C(/C=C/C(=O)N2CCC(NC(N)=O)C2)C(C)(C)CCC1 (centres unmarked) [Compound 50, (E)-1-(1-(3-(2,6,6-Trimethylcyclohex-1-enyl)acryloyl)pyrrolidin-3-yl)urea] | increase
CC1=C(/C=C/C(=O)N2CCOCC2)C(C)(C)CCC1 [Compound 6, (E)-1-Morpholino-3-(2,6,6-trimethylcyclohex-1-enyl)prop-2-en-1-one] | increase
CC1=C(/C=C/C(=O)N2CC[C@@H](OC(N)=O)C2)C(C)(C)CCC1 [Compound 57, (R,E)-1-(3-(2,6,6-Trimethylcyclohex-1-en-1-yl)acryloyl)pyrrolidin-3-yl carbamate] | increase
CC1=C(/C=C/C(=O)N2CCN(C(N)=S)CC2)C(C)(C)CCC1 [Compound 105, (E)-4-(3-(2,6,6-Trimethylcyclohex-1-en-1-yl)acryloyl)piperazine-1-carbothioamide] | increase
